# Tests used:
# Assay type in all cases: in vivo
# [1] = test system: Johnsongrass (Sorghum halepense, SORHA); experiment: Pre-emerge greenhouse herbicide test, phytotoxicity rating; details: 14 days after application, rating scale 0-100
# Procedure, shortened: (§1)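 Visual 0–100 injury rating (100 = all plants dead) taken 14 days after treatment. Rates of 125–1000 g ai/ha in acetone, 187 l/ha, were sprayed onto soil one day post-sowing; pots were surface-watered to incorporate, then bottom-watered.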
# [2] = test system: barnyardgrass (Echinochloa crusgalli, ECHCG); experiment: as above; details: 14 days after application, rating scale 0-100
# Procedure, shortened: as §1
# [3] = test system: common ragweed (Ambrosia artemisiifolia L., AMBEL); experiment: as above; details: 14 days after application, rating scale 0-100
# Procedure, shortened: as §1
# [4] = test system: green foxtail (Setaria viridis, SETVI); experiment: as above; details: 14 days after application, rating scale 0-100
# Procedure, shortened: as §1
# [5] = test system: ivyleaf morningglory (Ipomoea hederacea, IPOHE); experiment: as above; details: 14 days after application, rating scale 0-100
# Procedure, shortened: as §1
# [6] = test system: lambsquarters (Chenopodium album, CHEAL); experiment: as above; details: 14 days after application, rating scale 0-100
# Procedure, shortened: as §1
# [7] = test system: large crabgrass (Digitaria sanguinalis, DIGSA); experiment: as above; details: 14 days after application, rating scale 0-100
# Procedure, shortened: as §1
# [8] = test system: redroot pigweed (Amaranthus retroflexus, AMARE); experiment: as above; details: 14 days after application, rating scale 0-100
# Procedure, shortened: as §1
# [9] = test system: sicklepod (Cassia obtusifolia, CASOB); experiment: as above; details: 14 days after application, rating scale 0-100
# Procedure, shortened: as §1
# [10] = test system: velvetleaf (Abutilon theophrasti, ABUTH); experiment: as above; details: 14 days after application, rating scale 0-100
# Procedure, shortened: as §1
# [11] = test system: field corn (Zea mays L., var. Dekalb 535, CORN); experiment: Pre-emerge greenhouse test, crop damage rating; details: 14 days after application, rating scale 0-100
# Procedure, shortened: as §1
# [12] = test system: upland rice (Oryza sp., var.Tebonnet, RICE); experiment: Pre-emerge greenhouse test, crop damage rating; details: 14 days after application, rating scale 0-100
# Procedure, shortened: as §1
# [13] = test system: soybean (Glycine max L., var. Pella 86, SOY); experiment: Pre-emerge greenhouse test, crop damage rating; details: 14 days after application, rating scale 0-100
# Procedure, shortened: as §1
# [14] = test system: common ragweed (Ambrosia artemisiifolia L., AMBEL); experiment: Post-emerge greenhouse herbicide test, phytotoxicity rating; details: 14 days after application
# Procedure, shortened: (§2)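 Scores use a 0 (no damage) to 100 (complete kill) scale, taken 14 days after a foliar spray. Acetone solutions with 0.25% v/v non-ionic surfactant were applied by track sprayer at 187 l/ha and 63-1000 g ai/ha to bottom-watered 2-3 leaf plants.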
# [15] = test system: Johnsongrass (Sorghum halepense, SORHA); experiment: as above; details: 14 days after application
# Procedure, shortened: as §2
# [16] = test system: barnyardgrass (Echinochloa crusgalli, ECHCG); experiment: as above; details: 14 days after application
# Procedure, shortened: as §2
# [17] = test system: green foxtail (Setaria viridis, SETVI); experiment: as above; details: 14 days after application
# Procedure, shortened: as §2
# [18] = test system: ivyleaf morningglory (Ipomoea hederacea, IPOHE); experiment: as above; details: 14 days after application
# Procedure, shortened: as §2
# [19] = test system: lambsquarters (Chenopodium album, CHEAL); experiment: as above; details: 14 days after application
# Procedure, shortened: as §2
# [20] = test system: large crabgrass (Digitaria sanguinalis, DIGSA); experiment: as above; details: 14 days after application
# Procedure, shortened: as §2
# [21] = test system: redroot pigweed (Amaranthus retroflexus, AMARE); experiment: as above; details: 14 days after application
# Procedure, shortened: as §2
# [22] = test system: sicklepod (Cassia obtusifolia, CASOB); experiment: as above; details: 14 days after application
# Procedure, shortened: as §2
# [23] = test system: velvetleaf (Abutilon theophrasti, ABUTH); experiment: as above; details: 14 days after application
# Procedure, shortened: as §2
# [24] = test system: field corn (Zea mays L., var. Dekalb 535, CORN); experiment: Post-emerge greenhouse test, crop damage rating; details: 14 days after application
# Procedure, shortened: as §2
# [25] = test system: upland rice (Oryza sp., var.Tebonnet, RICE); experiment: Post-emerge greenhouse test, crop damage rating; details: 14 days after application
# Procedure, shortened: as §2
# [26] = test system: soybean (Glycine max L., var. Pella 86, SOY); experiment: Post-emerge greenhouse test, crop damage rating; details: 14 days after application
# Procedure, shortened: as §2
smiles,measurement,setting,value
"Cc1nn(-c2cc(Oc3ncccn3)c(Cl)cc2F)c(=O)n1C(F)F [Compound 3-1, 1-[4-chloro-2-fluoro-5-(2-pyrimidyloxy)phenyl]-4-difluoromethyl-3-methyl-1,4-dihydro-1,2,4-triazolin-5-one]",phytotoxicity rating SORHA,[1]; 125 g ai/ha,100
same,phytotoxicity rating SORHA,[1]; 500 g ai/ha,100
same,phytotoxicity rating ECHCG,[2]; 125 g ai/ha,100
same,phytotoxicity rating ECHCG,[2]; 500 g ai/ha,100
same,phytotoxicity rating AMBEL,[3]; 125 g ai/ha,100
same,phytotoxicity rating AMBEL,[3]; 500 g ai/ha,100
same,phytotoxicity rating SETVI,[4]; 125 g ai/ha,100
same,phytotoxicity rating SETVI,[4]; 500 g ai/ha,100
same,phytotoxicity rating IPOHE,[5]; 125 g ai/ha,100
same,phytotoxicity rating IPOHE,[5]; 500 g ai/ha,100
same,phytotoxicity rating CHEAL,[6]; 125 g ai/ha,100
same,phytotoxicity rating CHEAL,[6]; 500 g ai/ha,100
same,phytotoxicity rating DIGSA,[7]; 125 g ai/ha,100
same,phytotoxicity rating DIGSA,[7]; 500 g ai/ha,100
same,phytotoxicity rating AMARE,[8]; 125 g ai/ha,100
same,phytotoxicity rating AMARE,[8]; 500 g ai/ha,100
same,phytotoxicity rating CASOB,[9]; 125 g ai/ha,100
same,phytotoxicity rating CASOB,[9]; 500 g ai/ha,100
same,phytotoxicity rating ABUTH,[10]; 125 g ai/ha,100
same,phytotoxicity rating ABUTH,[10]; 500 g ai/ha,100
same,crop damage rating CORN,[11]; 125 g ai/ha,90
same,crop damage rating CORN,[11]; 500 g ai/ha,100
same,crop damage rating RICE,[12]; 125 g ai/ha,99
same,crop damage rating RICE,[12]; 500 g ai/ha,100
same,crop damage rating SOY,[13]; 125 g ai/ha,90
same,crop damage rating SOY,[13]; 500 g ai/ha,100
same,AMBEL phytotoxicity rating (0-100),[14]; 63 g al/ha,70
same,AMBEL phytotoxicity rating (0-100),[14]; 500 g al/ha,100
same,SORHA phytotoxicity rating (0-100),[15]; 63 g al/ha,80
same,SORHA phytotoxicity rating (0-100),[15]; 500 g al/ha,100
same,ECHCG phytotoxicity rating (0-100),[16]; 63 g al/ha,70
same,ECHCG phytotoxicity rating (0-100),[16]; 500 g al/ha,100
same,SETVI phytotoxicity rating (0-100),[17]; 63 g al/ha,95
same,SETVI phytotoxicity rating (0-100),[17]; 500 g al/ha,100
same,IPOHE phytotoxicity rating (0-100),[18]; 63 g al/ha,100
same,IPOHE phytotoxicity rating (0-100),[18]; 500 g al/ha,100
same,CHEAL phytotoxicity rating (0-100),[19]; 63 g al/ha,95
same,CHEAL phytotoxicity rating (0-100),[19]; 500 g al/ha,100
same,DIGSA phytotoxicity rating (0-100),[20]; 63 g al/ha,80
same,DIGSA phytotoxicity rating (0-100),[20]; 500 g al/ha,100
same,AMARE phytotoxicity rating (0-100),[21]; 63 g al/ha,95
same,AMARE phytotoxicity rating (0-100),[21]; 500 g al/ha,100
same,CASOB phytotoxicity rating (0-100),[22]; 63 g al/ha,90
same,CASOB phytotoxicity rating (0-100),[22]; 500 g al/ha,100
same,ABUTH phytotoxicity rating (0-100),[23]; 63 g al/ha,100
same,ABUTH phytotoxicity rating (0-100),[23]; 500 g al/ha,100
same,CORN crop damage rating (0-100),[24]; 63 g al/ha,25
same,CORN crop damage rating (0-100),[24]; 500 g al/ha,100
same,RICE crop damage rating (0-100),[25]; 63 g al/ha,70
same,RICE crop damage rating (0-100),[25]; 500 g al/ha,100
same,SOY crop damage rating (0-100),[26]; 63 g al/ha,100
same,SOY crop damage rating (0-100),[26]; 500 g al/ha,100
O=C1C2=CCCCN2C(=O)N1c1cc(Oc2ncccc2C(F)(F)F)c(Cl)cc1F [Compound 4-2],phytotoxicity rating SORHA,[1]; 500 g ai/ha,0
same,phytotoxicity rating ECHCG,[2]; 500 g ai/ha,0
same,phytotoxicity rating AMBEL,[3]; 500 g ai/ha,100
same,phytotoxicity rating SETVI,[4]; 500 g ai/ha,40
same,phytotoxicity rating IPOHE,[5]; 500 g ai/ha,0
same,phytotoxicity rating CHEAL,[6]; 500 g ai/ha,100
same,phytotoxicity rating DIGSA,[7]; 500 g ai/ha,0
same,phytotoxicity rating AMARE,[8]; 500 g ai/ha,100
same,phytotoxicity rating CASOB,[9]; 500 g ai/ha,0
same,phytotoxicity rating ABUTH,[10]; 500 g ai/ha,95
same,crop damage rating CORN,[11]; 500 g ai/ha,0
same,crop damage rating RICE,[12]; 500 g ai/ha,0
same,crop damage rating SOY,[13]; 500 g ai/ha,0
same,AMBEL phytotoxicity rating (0-100),[14]; 500 g al/ha,75
same,SORHA phytotoxicity rating (0-100),[15]; 500 g al/ha,0
same,ECHCG phytotoxicity rating (0-100),[16]; 500 g al/ha,0
same,SETVI phytotoxicity rating (0-100),[17]; 500 g al/ha,10
same,IPOHE phytotoxicity rating (0-100),[18]; 500 g al/ha,99
same,CHEAL phytotoxicity rating (0-100),[19]; 500 g al/ha,90
same,DIGSA phytotoxicity rating (0-100),[20]; 500 g al/ha,0
same,AMARE phytotoxicity rating (0-100),[21]; 500 g al/ha,100
same,CASOB phytotoxicity rating (0-100),[22]; 500 g al/ha,20
same,ABUTH phytotoxicity rating (0-100),[23]; 500 g al/ha,70
same,CORN crop damage rating (0-100),[24]; 500 g al/ha,5
same,RICE crop damage rating (0-100),[25]; 500 g al/ha,10
same,SOY crop damage rating (0-100),[26]; 500 g al/ha,30

# From patent US6479435B1, “Diaryl ethers and processes for their preparation and herbicidal and desiccant compositions containing them” (ISK Americas Incorporated, priority 1997, dated 2002)
